Experimental data from PubChem BioAssay AID1963423 (Molecular Pharmacology Branch, DTP, NCI, 2024).

Tested on: 439559-082-T-J2-PDC complex spheroid growth
Assay: Anticancer human tumor 439559-082-T-J2-PDC patient-derived colon adenocarcinoma cell line growth inhibition [Asc]
Details: for IC50: curve of first compound; for viability, T/C: stronger effect = lower value
Method in brief: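 Concentration series start at each agent's clinical Cmax, or at 10 microM when none is established, and drop in half-log steps; agents are applied alone or together to complex spheroids built with HUVEC and hMSC.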

[1] = second compound 0.00316 µM, first compound 0.00316 µM
[2] = second compound 0.00316 µM, first compound 0.01 µM
[3] = second compound 0.00316 µM, first compound 0.0316 µM
[4] = second compound 0.00316 µM, first compound 0.1 µM
[5] = second compound 0.00316 µM, first compound 0.316 µM
[6] = second compound 0.00316 µM, first compound 1 µM
[7] = second compound 0.01 µM, first compound 0.00316 µM
[8] = second compound 0.01 µM, first compound 0.01 µM
[9] = second compound 0.01 µM, first compound 0.0316 µM
[10] = second compound 0.01 µM, first compound 0.1 µM
[11] = second compound 0.01 µM, first compound 0.316 µM
[12] = second compound 0.01 µM, first compound 1 µM
[13] = second compound 0.0316 µM, first compound 0.00316 µM
[14] = second compound 0.0316 µM, first compound 0.01 µM
[15] = second compound 0.0316 µM, first compound 0.0316 µM
[16] = second compound 0.0316 µM, first compound 0.1 µM
[17] = second compound 0.0316 µM, first compound 0.316 µM
[18] = second compound 0.0316 µM, first compound 1 µM
[19] = second compound 0.1 µM, first compound 0.00316 µM
[20] = second compound 0.1 µM, first compound 0.01 µM
[21] = second compound 0.1 µM, first compound 0.0316 µM
[22] = second compound 0.1 µM, first compound 0.1 µM
[23] = second compound 0.1 µM, first compound 0.316 µM
[24] = second compound 0.1 µM, first compound 1 µM
[25] = second compound 0.316 µM, first compound 0.00316 µM
[26] = second compound 0.316 µM, first compound 0.01 µM
[27] = second compound 0.316 µM, first compound 0.0316 µM
[28] = second compound 0.316 µM, first compound 0.1 µM
[29] = second compound 0.316 µM, first compound 0.316 µM
[30] = second compound 0.316 µM, first compound 1 µM
[31] = second compound 1 µM, first compound 0.00316 µM
[32] = second compound 1 µM, first compound 0.01 µM
[33] = second compound 1 µM, first compound 0.0316 µM
[34] = second compound 1 µM, first compound 0.1 µM
[35] = second compound 1 µM, first compound 0.316 µM
[36] = second compound 1 µM, first compound 1 µM
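Further: spheroids exposed to agents for 7 days starting day 3 after seeding.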
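Wherever viability, T/C is given: percent of DMSO vehicle control viability with 100% = vehicle.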

In the case of `CCN1CCN(Cc2ccc(Nc3ncc(F)c(-c4cc(F)c5nc(C)n(C(C)C)c5c4)n3)nc2)CC1` + CNC(C)C(=O)NC1CN(S(=O)(=O)c2cccc(S(=O)(=O)N3CCC4CCC(C(=O)NC(c5ccccc5)c5ccccc5)N4C(=O)C(NC(=O)C(C)NC)C3)c2)CCC2CCC(C(=O)NC(c3ccccc3)c3ccccc3)N2C1=O, the IC50 (second compound 0.00316 µM) is reported as > 1 µM, the IC50 (second compound 0.01 µM) is reported as > 1 µM and the IC50 (second compound 0.0316 µM) is reported as > 1 µM. The IC50 (second compound 0.1 µM) was > 1 µM, the IC50 (second compound 0.316 µM) was > 1 µM and the IC50 (second compound 1 µM) was > 1 µM. The viability, T/C [1] was 99.5%, the viability, T/C [2] was 92.6% and the viability, T/C [3] was 91%. The viability, T/C [4] was 94.1%, the viability, T/C [5] was 85.8% and the viability, T/C [6] was 66.9%. The viability, T/C [7] was 107%, the viability, T/C [8] was 101% and the viability, T/C [9] was 87.3%. It also gave a viability, T/C [10] of 95.4%, a viability, T/C [11] of 88% and a viability, T/C [12] of 73.1%. The viability, T/C [13] was 95.8%, the viability, T/C [14] was 111% and the viability, T/C [15] was 89.6%. The viability, T/C [16] was 96.8%, the viability, T/C [17] was 94.5% and the viability, T/C [18] was 78.5%. For the same molecule, the viability, T/C [19] was 103%, the viability, T/C [20] was 87.9% and the viability, T/C [21] was 99%. It also gave a viability, T/C [22] of 94.6%, a viability, T/C [23] of 95.5% and a viability, T/C [24] of 64.2%. The viability, T/C [25] was 91.6%, the viability, T/C [26] was 84.2% and the viability, T/C [27] was 86.8%. It also gave a viability, T/C [28] of 75.5%, a viability, T/C [29] of 82% and a viability, T/C [30] of 65.5%. For the same molecule, the viability, T/C [31] was 88.9%, the viability, T/C [32] was 77.3% and the viability, T/C [33] was 69.4%. For the same molecule, the viability, T/C [34] was 69.2%, the viability, T/C [35] was 62.1% and the viability, T/C [36] was 48.9%.
With `NC(=O)C(=Cn1cnc(-c2cc(C(F)(F)F)cc(C(F)(F)F)c2)n1)c1cncnc1` + CNC(C)C(=O)NC1CN(S(=O)(=O)c2cccc(S(=O)(=O)N3CCC4CCC(C(=O)NC(c5ccccc5)c5ccccc5)N4C(=O)C(NC(=O)C(C)NC)C3)c2)CCC2CCC(C(=O)NC(c3ccccc3)c3ccccc3)N2C1=O the IC50 (second compound 0.00316 µM) was > 0.3 µM, the IC50 (second compound 0.01 µM) was > 0.3 µM and the IC50 (second compound 0.0316 µM) was > 0.3 µM. For the same molecule, the IC50 (second compound 0.1 µM) was > 0.3 µM, the IC50 (second compound 0.316 µM) was > 0.3 µM and the IC50 (second compound 1 µM) was > 0.3 µM. The viability, T/C (second compound 0.00316 µM, first compound 0.000949 µM) was 105%, the viability, T/C (second compound 0.00316 µM, first compound 0.003 µM) was 101% and the viability, T/C (second compound 0.00316 µM, first compound 0.00949 µM) was 102%. The viability, T/C (second compound 0.00316 µM, first compound 0.03 µM) was 97%, the viability, T/C (second compound 0.00316 µM, first compound 0.0949 µM) was 98.2% and the viability, T/C (second compound 0.00316 µM, first compound 0.3 µM) was 79.4%. The viability, T/C (second compound 0.01 µM, first compound 0.000949 µM) was 101%, the viability, T/C (second compound 0.01 µM, first compound 0.003 µM) was 92.3% and the viability, T/C (second compound 0.01 µM, first compound 0.00949 µM) was 94.1%. For the same molecule, the viability, T/C (second compound 0.01 µM, first compound 0.03 µM) was 98.7%, the viability, T/C (second compound 0.01 µM, first compound 0.0949 µM) was 102% and the viability, T/C (second compound 0.01 µM, first compound 0.3 µM) was 92.4%. It also gave a viability, T/C (second compound 0.0316 µM, first compound 0.000949 µM) of 94.1%, a viability, T/C (second compound 0.0316 µM, first compound 0.003 µM) of 87.3% and a viability, T/C (second compound 0.0316 µM, first compound 0.00949 µM) of 100%. For the same molecule, the viability, T/C (second compound 0.0316 µM, first compound 0.03 µM) was 99.7%, the viability, T/C (second compound 0.0316 µM, first compound 0.0949 µM) was 108% and the viability, T/C (second compound 0.0316 µM, first compound 0.3 µM) was 84.8%. For the same molecule, the viability, T/C (second compound 0.1 µM, first compound 0.000949 µM) was 96.3%, the viability, T/C (second compound 0.1 µM, first compound 0.003 µM) was 103% and the viability, T/C (second compound 0.1 µM, first compound 0.00949 µM) was 94.9%. The viability, T/C (second compound 0.1 µM, first compound 0.03 µM) was 99.3%, the viability, T/C (second compound 0.1 µM, first compound 0.0949 µM) was 101% and the viability, T/C (second compound 0.1 µM, first compound 0.3 µM) was 87.2%. The viability, T/C (second compound 0.316 µM, first compound 0.000949 µM) was 100%, the viability, T/C (second compound 0.316 µM, first compound 0.003 µM) was 99.2% and the viability, T/C (second compound 0.316 µM, first compound 0.00949 µM) was 87.2%. For the same molecule, the viability, T/C (second compound 0.316 µM, first compound 0.03 µM) was 86.2%, the viability, T/C (second compound 0.316 µM, first compound 0.0949 µM) was 97% and the viability, T/C (second compound 0.316 µM, first compound 0.3 µM) was 82.8%. For the same molecule, the viability, T/C (second compound 1 µM, first compound 0.000949 µM) was 79.1%, the viability, T/C (second compound 1 µM, first compound 0.003 µM) was 80% and the viability, T/C (second compound 1 µM, first compound 0.00949 µM) was 86.8%. For the same molecule, the viability, T/C (second compound 1 µM, first compound 0.03 µM) was 71.4%, the viability, T/C (second compound 1 µM, first compound 0.0949 µM) was 88.7% and the viability, T/C (second compound 1 µM, first compound 0.3 µM) was 74.2%.
Work on `O=C(c1ccc(F)c(F)c1Nc1ccc(I)cc1F)N1CC(O)([C@@H]2CCCCN2)C1` + CNC(C)C(=O)NC1CN(S(=O)(=O)c2cccc(S(=O)(=O)N3CCC4CCC(C(=O)NC(c5ccccc5)c5ccccc5)N4C(=O)C(NC(=O)C(C)NC)C3)c2)CCC2CCC(C(=O)NC(c3ccccc3)c3ccccc3)N2C1=O yielded an IC50 (second compound 0.00316 µM) of 0.262 µM, an IC50 (second compound 0.01 µM) of 0.248 µM and an IC50 (second compound 0.0316 µM) of 0.253 µM. For the same molecule, the IC50 (second compound 0.1 µM) was 0.228 µM, the IC50 (second compound 0.316 µM) was 0.141 µM and the IC50 (second compound 1 µM) was 0.124 µM. For the same molecule, the viability, T/C [1] was 96.6%, the viability, T/C [2] was 77.4% and the viability, T/C [3] was 76.8%. It also gave a viability, T/C [4] of 67.9%, a viability, T/C [5] of 48.6% and a viability, T/C [6] of 16.2%. For the same molecule, the viability, T/C [7] was 99.5%, the viability, T/C [8] was 107% and the viability, T/C [9] was 87.7%. It also gave a viability, T/C [10] of 61.9%, a viability, T/C [11] of 51% and a viability, T/C [12] of 25.6%. For the same molecule, the viability, T/C [13] was 108%, the viability, T/C [14] was 95.6% and the viability, T/C [15] was 89.5%. It also gave a viability, T/C [16] of 63.5%, a viability, T/C [17] of 47.6% and a viability, T/C [18] of 27.1%. It also gave a viability, T/C [19] of 86.8%, a viability, T/C [20] of 98.3% and a viability, T/C [21] of 86.7%. The viability, T/C [22] was 61.6%, the viability, T/C [23] was 46.7% and the viability, T/C [24] was 17%. It also gave a viability, T/C [25] of 89.8%, a viability, T/C [26] of 101% and a viability, T/C [27] of 69.8%. For the same molecule, the viability, T/C [28] was 51.4%, the viability, T/C [29] was 46.8% and the viability, T/C [30] was 25%. For the same molecule, the viability, T/C [31] was 72.2%, the viability, T/C [32] was 68% and the viability, T/C [33] was 68.2%. It also gave a viability, T/C [34] of 48.4%, a viability, T/C [35] of 39% and a viability, T/C [36] of 15.5%.
